In the METLIN SMRT retention time set (Domingo-Almenara et al. 2019):

assay: gradient 5% acetonitrile 3 min, to 50% in 2 min, to 85% in 15 min, held 3 min, 100 µL/min; conditions: column: Zorbax Extend-C18 2.1 x 50 mm; eluents: water / acetonitrile, 0.1% formic acid
Procedure, shortened: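 Retention times come from adduct peaks that were picked computationally and then checked by hand. The standards, pure and pooled in mixtures of ~100 molecules, were run on a Zorbax Extend-C18 column (2.1 × 50 mm, 1.8 μm) at 100 μL/min with water and acetonitrile, each with 0.1% formic acid. Detection was by quadrupole time-of-flight mass spectrometry in positive and negative ionization mode, with a dead volume of 40 μL and a dwell volume of 900 μL.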

SMILES | RP-LC retention time
COC(=O)Cn1c(=O)c2c(nc3n2CCCN3c2ccccc2)n(C)c1=O | 761 s
O=C(Nc1cnccn1)c1ccc(S(=O)(=O)N2CCCCCC2)cc1 | 766 s
COc1ccc(Cl)c2c(=O)c3c([nH]c12)CCN(CC(=O)Nc1ccc2c(c1)OCCO2)C3 | 610 s
O=C(NC1CCCC1)C1CCCN(c2nccnc2Sc2ccccc2)C1 (configuration not stated) | 1020 s
O=C(CCn1nnc2cc(-c3noc(Cc4ccc(Cl)cc4)n3)ccc21)N1CCOCC1 | 878 s
Cc1oc(-c2[nH]ncc2C(=O)N(C)C)cc1S(=O)(=O)Nc1ccc(C(C)C)cc1 | 770 s
Cc1ccc(NC(=O)Cn2cc3c(n2)CCC(C)C3)c(Cl)c1 (configuration not stated) | 1110 s
CCOC(=O)c1c(C)oc2nc(C)nc(NC3CCN(Cc4ccccc4)CC3)c12 | 597 s
CCC(=O)N1CCC(C(=O)Nc2ccc(S(=O)(=O)N3CCCC3)cc2)CC1 | 697 s
COc1ccc2c(c1)C1(CCN(C(=O)COc3ccccc3)C1)C(=O)N2 (configuration not stated) | 733 s
CN(C)CCCNC(=O)C1CCN(c2nc3ccc(-c4cccnc4)nc3s2)CC1 | 543 s
Cc1ccc(NS(=O)(=O)c2cc(-c3[nH]ncc3C(=O)N3CCCCC3)oc2C)c(F)c1 | 806 s
CC(C)CCNC(=O)Nc1ccc2c(c1)CCN2S(C)(=O)=O | 784 s
COC(=O)c1nnn(-c2cc(C)ccc2OC)c1C(=O)OC | 862 s
CCOC(=O)N1CCN(C(=O)Cc2c(C)nn(-c3nc(-c4ccc(F)cc4)cs3)c2C)CC1 | 1010 s
CCOc1ccc2ncc(S(=O)(=O)c3ccc(OC)cc3)c(N3CCN(CC)CC3)c2c1 | 660 s
Cc1ccc(C)c(N2CCN(S(=O)(=O)c3cc(-c4csc(C)n4)sc3C)CC2)c1 | 1360 s
O=C(Nc1ccc(N2CCN(Cc3ccc(F)cc3)C2=O)nc1)c1cccs1 | 570 s
Fc1ccc(OCc2nc(-c3ccc4c(c3)ncn4CCN3CCCCC3)no2)cc1 | 654 s

SMILES | RP-LC retention time
CCc1cc(=O)n(CC(=O)NCc2ccccc2)c(N)n1 | 566 s
Cc1cc(C)cc(C(=O)N2CCCC(C(=O)NCCc3ccco3)C2)c1 (configuration not stated) | 836 s
CCOC(=O)Cn1nc2oc(=O)c(CCN3CCN(c4ccccc4OC)CC3)c(C)c2c1C | 726 s
COc1ccc2[nH]cc(CCn3ccc4c(nnc5ccnn54)c3=O)c2c1 | 686 s
CC1CCCCN1CCNC(=O)CCCn1c(=O)c2cccn2c2ccccc21 (configuration not stated) | 621 s
CN(C)CCNC(=O)c1ccc(CS(=O)c2ccc(Cl)cc2)o1 (configuration not stated) | 591 s
CCCn1cc(S(=O)(=O)NCc2ccc(F)cc2Cl)c2cccnc21 | 948 s
Fc1ccccc1-c1noc(NC2CCCC2)n1 | 929 s
CN(C)S(=O)(=O)c1ccc2c(c1)N(CC(=O)NCc1ccccc1)C(=O)C1CCCCN21 (configuration not stated) | 987 s
CCCNC(=O)N1CCC2(CC1)NCCc1c2[nH]c2ccccc12 | 613 s
Cc1ccccc1CN1N=C(C(=O)N2CCC(C)CC2)S(=O)(=O)c2ccccc21 | 1050 s
Oc1ccc(-c2csc(Nc3ccccn3)n2)cc1O | 621 s
CCCN(C)C(=O)c1cn2ccnc(-c3ccc(C)cc3)c2n1 | 956 s
O=C(c1cccc(Cl)c1)N1CCN(c2nc(CN3CCOCC3)cs2)CC1 | 623 s
CCc1nc(-c2ccc(-c3noc(C(C)NC(=O)c4ccco4)n3)cc2)cs1 (configuration not stated) | 980 s
CN(C)C(=O)Oc1ccc2c(c1)O/C(=C\C=C\c1ccccc1)C2=O | 1060 s
CCC(C)NC(=O)c1ccc2ccnc(N3CCN(c4ccc(F)cc4)CC3)c2c1 (configuration not stated) | 785 s
COC[C@@H]1CN(Cc2ccc(C#N)cc2)C[C@H]1c1ccccn1 | 553 s
